{
  "source": "patent US20260027102A1",
  "about": "“QUINOLYLNITRONE DERIVATIVES FOR USE IN THE PREVENTION AND/OR TREATMENT OF HEARING LOSS” (CONSEJO SUPERIOR DE INVESTIGACIONES CIENTÍFICAS (CSIC), priority 2022, published 2026)",
  "key": {"[1]": {"system": "HEI-OC1 mouse auditory cells", "assay": "XTT cell viability assay in HEI-OC1 auditory cells with or without H2O2", "assay_type": "cell-based", "protocol": "QN23 nitrone was tested in cell cultures of HEI-OC1 mouse auditory cells derived from the Immortomouse™ postnatal organ of Corti following protocols published by the group (Cervantes et al., J Clin Med. 2019 Sep. 14; 8 (9): 1464). HEI-OC1 cells were cultured in DMEM medium supplemented with 10% fetal bovine serum (Gibco), without antibiotics.\nCells were treated with different doses of QN23 (10-50-100-150-200 μM) and with or without 1.2 mM H2O2. Cell viability was studied by XTT assay. Absorbance measurements at 450 and 660 nm were taken with the VERSAmax plate reader at 4 h, 6 h and 23 h after addition of XTT reagents. Viability results were calculated following the formula: Specific absorbance=[Abs450 nm (test)−Abs450 nm (blank)]−Abs660 nm (test). The wells without cells in the respective treatments were used as blanks. Data are represented as mean±SEM, considering the untreated control as 100% viability. Results are from 3 independent experiments and 7 wells/condition/experiment for QN23 nitrone without H2O2 treatment (A-C) or with treatment (D-E). Statistical significance was calculated by Student's test: *p<0.05; **p<0.01; ***p<0.001 in comparison vs. untreated control with QN23. […] After the exposure to H2O2, the cell viability was reduced about 50% due to the cell death associated to the oxidative damage caused by H2O2.\nThe inventors also compared the effect of QN23 with N-acetylcysteine (NAC). To that end, QN23 nitrone was dissolved in absolute EtOH≥99.5% (#107017; Merck) and tested in vitro in a dose range of 10-200 μM. Cells were treated with increasing doses of H2O2 (1-1.4 mM; Merck).\nN-acetylcysteine (NAC) (0.5 mM; Sigma) was used as a reference antioxidant treatment. NAC is a prodrug of L-cysteine, itself a precursor of the biological antioxidant glutathione, among other intracellular actions (Ezerina et al., Cell Chem Biol. 2018 Apr. 19; 25 (4): 447-459.e4). Cells were treated with increasing doses of H2O2 (0.8-1.6 mM).\nIn both cases, survival curves were performed using the CyQUANT™ XTT cell viability assay (#X12223; Invitrogen) after 2 hours of the administration of QN23 or NAC.\nPhenyl N-t-butylnitrone≥98% C6H5CH═N(O)C(CH3)3, PBN) (Sigma-Aldrich, catalogue number B7263) was dissolved as indicated by the manufacturer in Dimethyl sulfoxide (DMSO). DMSO was used as a solvent and had no detectable effects at the dose used (up to 0.1%). A solution 50 uM was prepared to determine the protective effect.\nCell culture, treatments with PBN and XTT assays were performed as already reported for QN23 in sections above."}, "C57BL/6JCrl mice": {"system": "C57BL/6JCrl mice", "assay": "Noise-induced hearing loss in mice, auditory brainstem response (ABR) thresholds", "assay_type": "in vivo", "conditions": "24 h after noise exposure (105 dB, 30 min); QN23 2 mg/kg every 12 h intraperitoneally for 3 days, started 1 h before noise; vs vehicle; click and pure tones 4-32 kHz", "protocol": "The experiments were carried out in C57BL/6JCrl mice, male or female, aged 1.5 months at the beginning of the study.\nNoise exposure was performed inside a reverberation chamber. The animals were exposed to 105 dB SL for 30 minutes (Sanz L, Murillo-Cuesta S, Cobo P, Cediel-Algovia R, Contreras J, Rivera T, Varela-Nieto I, Avendaño C. Swept-sine noise-induced damage as a hearing loss model for preclinical assays. Front Aging Neurosci. 2015 Feb. 16; 7:7).\nAuditory function was assessed by recording auditory brainstem evoked potentials (ABR) at baseline and after noise exposure (1 day, 14 days and 28 days after exposure), according to protocol described in (Murillo-Cuesta S, Contreras J, Zurita E, Cediel R, Cantero M, Varela-Nieto I, Montoliu L. Melanin precursors prevent premature age-related and noise-induced hearing loss in albino mice. Pigment Cell Melanoma Res. 2010 February; 23 (1): 72-83. doi: 10.1111/j.1755-148X.2009.00646.x. Epub 2009 Oct. 19).\nThe nitrone QN23 was prepared as described in WO2020/074666. The solution for its administration was always performed at the time of use by dissolving it under vigorous stirring in a mixture of ethanol, polyethylene glycol (PEG400, Sigma) and saline (1:200:60, V/V), until a stock solution of concentration 3.6 mg/ml was obtained. […]"}},
  "data": [
    {"smiles": "CC(=O)N[C@@H](CS)C(=O)O", "note": "[NAC, N-acetylcysteine, reference compound]", "values": [
      {"measurement": "Protective effect on cell viability at increasing doses of H2O2", "setting": "[1]; 0.5 mM NAC, H2O2 0.8-1.6 mM, 2 h", "result": "effectively protected from H2O2-induced oxidative damage and cell death at the highest doses tested"}
    ]},
    {"smiles": "CC(C)(C)[N+]([O-])=Cc1ccccc1", "note": "[PBN, Phenyl N-t-butylnitrone, reference compound]", "values": [
      {"measurement": "Protective effect on cell viability at increasing doses of H2O2", "setting": "[1]; 50 μM PBN, without or with increasing doses of H2O2, 2 h, XTT read at 4 and 6 h, 1 experiment", "result": "no protection was observed when H2O2 doses were higher than 0.5 mM"}
    ]},
    {"smiles": "COc1ccc2nc(Cl)c(/C=[N+](\\[O-])C(C)(C)C)cc2c1", "note": "[QN23, (Z)—N-tert-butyl-1-(2-chloro-6-methoxyquinolin-3-yl)methanimine oxide]", "values": [
      {"measurement": "Auditory Brainstem Response thresholds after noise exposure", "setting": "C57BL/6JCrl mice", "result": "significantly lower thresholds than those receiving vehicle"},
      {"measurement": "Cell viability at low H2O2 concentration (early stages of cell deterioration)", "setting": "[1]; 50 μM QN23, 0.8 mM H2O2, 2 h", "result": "enhancement of cell viability even at concentrations as low as 0.8 mM H2O2"},
      {"measurement": "Protective effect on cell viability at increasing doses of H2O2", "setting": "[1]; 50 μM QN23, H2O2 0.8-1.6 mM, 2 h", "result": "cell viability superior at all H2O2 concentrations tested"},
      {"measurement": "Toxicity to cells (cell viability without H2O2)", "setting": "[1]; QN23 10-200 μM for 2 h, without H2O2, XTT read at 4, 6 and 23 h", "result": "not toxic to the cells"},
      {"measurement": "Cell viability after exposure to H2O2", "setting": "[1]; QN23 10-50-100-150-200 μM with 1.2 mM H2O2 for 2 h, vs non-treated control group", "result": "significantly increased cell viability at all the doses tested"}
    ]}
  ]
}
